Reference: the CheMixHub drug solubility set

Assay: xn = mol fraction of the nth substance listed, in the solute-free solvent

CS(=O)(=O)c1ccc(C(O)C(CF)NC(=O)C(Cl)Cl)cc1 (configuration not stated) + CO + O
solubility (g/100 g solution)
Settings | 278.15 K | 283.15 K | 288.15 K | 293.15 K | 298.15 K | 303.15 K | 308.15 K | 313.15 K | 318.15 K
x2 = 0.05881 | 0.163 | 0.211 | 0.278 | 0.358 | 0.449 | 0.571 | 0.711 | 0.881 | 1.09
x2 = 0.1233 | 0.379 | 0.485 | 0.609 | 0.762 | 0.939 | 1.15 | 1.41 | 1.71 | 2.06
x2 = 0.1942 | 0.707 | 0.878 | 1.08 | 1.31 | 1.58 | 1.9 | 2.27 | 2.68 | 3.17
x2 = 0.2727 | 1.06 | 1.32 | 1.6 | 1.93 | 2.31 | 2.78 | 3.28 | 3.88 | 4.53
x2 = 0.3599 | 1.47 | 1.83 | 2.25 | 2.71 | 3.25 | 3.88 | 4.58 | 5.45 | 6.34
x2 = 0.4576 | 1.92 | 2.4 | 2.94 | 3.6 | 4.3 | 5.17 | 6.17 | 7.3 | 8.52
x2 = 0.5675 | 2.52 | 3.12 | 3.82 | 4.64 | 5.63 | 6.76 | 7.98 | 9.5 | 11
x2 = 0.6923 | 3.16 | 3.96 | 4.85 | 5.92 | 7.07 | 8.44 | 10.1 | 11.9 | 13.7
x2 = 0.835 | 3.91 | 4.85 | 5.98 | 7.23 | 8.65 | 10.3 | 12.2 | 14.2 | 16.5

O=c1ccc2ccccc2o1 + CO + O
solubility (g/100 g solution)
Settings | 278.15 K | 283.15 K | 288.15 K | 293.15 K | 298.15 K | 303.15 K | 308.15 K | 313.15 K | 318.15 K
x2 = 0.1 | 0.0349 | 0.0594 | 0.105 | 0.171 | 0.28 | 0.435 | 0.655 | 0.988 | 1.41
x2 = 0.2 | 0.147 | 0.236 | 0.385 | 0.598 | 0.922 | 1.43 | 2.06 | 3.08 | 4.3
x2 = 0.3 | 0.262 | 0.479 | 0.869 | 1.6 | 2.58 | 4.47 | 7.35 | 12.8 | 19.9
x2 = 0.4 | 0.573 | 1.11 | 1.99 | 3.53 | 6.25 | 10.8 | 17.7 | 28.7 | 41.9
x2 = 0.5 | 1.13 | 1.96 | 3.86 | 6.41 | 11.2 | 18.6 | 28.4 | 43.2 | 59.6
x2 = 0.6 | 1.82 | 3.3 | 5.98 | 9.8 | 16 | 24.8 | 38.3 | 52.1 | 67
x2 = 0.7 | 2.64 | 4.53 | 7.8 | 12.7 | 20.2 | 30.4 | 42.9 | 59.2 | 73.3
x2 = 0.8 | 3.28 | 5.51 | 9.32 | 15.7 | 22.1 | 34.3 | 46.8 | 62.9 | 77.3
x2 = 0.9 | 4.13 | 6.53 | 11.1 | 17.5 | 25.5 | 36.7 | 50.3 | 65.3 | 79.6
